Holding throughout (assay type): cell-based, mouse
Experiment [1] concerns Oct4-GFP MEFs. Put plainly: iPS efficiency test: MEFs infected with SKO viruses, reprogrammed clones counted / GFP cell ratio by FCM. The following applies: for recommended working concentration: from dose-response in Basal3.0, day 10; for effect on the iCD1 reprogramming efficiency: added to iCD1: A83-01 0.5 μM, valproic acid 1 mM, 2% fetal bovine serum; for effect on the reprogramming efficiency: ingredient left out of iCD1, clones at day 8 after SKO infection. The text has this: Somatic cell type used in reprogramming is OG2 MEFs of no more than 3 passages. OG2 mice are transgenic mice with green fluorescent protein (GFP) gene linked after the promoter of Oct4 gene specifically expressed by stem cell. At a later stage of the reprogramming, endogenous Oct4 of OG2 MEF is activated, and the green fluorescent protein is concomitantly expressed, so the cells or reprogrammed clones appear green when observed under a fluorescence microscope. The reprogramming efficiencies under different conditions can be compared by a research by directly counting the reprogrammed clones, that is, the green fluorescent clones under a fluorescence microscope, or by analyzing the ratio of the green fluorescent cells through flow cytometry (FCM).
Cell assay and preparation of viruses are as follows. […] 6-18 hrs after the cell seeding, the cells are infected with the viruses carrying a mouse reprogramming factor according to the cell density and state. The infection is carried out in two rounds, 24 hrs after the first round of infection, the second round of infection is carried out, and the virus fluid is replaced by various test media 24 hrs after the second round of infection. The day of replacing the virus fluid is recorded as day 0 (D0), and the GFP fluorescent clones are counted in the original wells or the ratio of the GFP fluorescent cells are analyzed by flow cytometry (FCM) at different times after infection as desired.
The preparation of virus includes transfecting virus packaging cells (PlatE) with reprogramming factor plasmid cloned onto a PMX vector, refreshing the culture media 12-16 hrs after infection, using the culture collected 48 hrs after the transfection as a virus fluid for the first infection, and using the additional culture collected 24 hrs after adding fresh culture as a virus fluid for the second infection. […]

Experiment [2] has as its system Oct4-GFP MEFs. Put plainly: Growth curves of SKO-infected embryonic fibroblasts in iCD1 lacking single ingredients. The following applies: ingredient left out of iCD1, cells counted at D0, day 3, day 6. An excerpt:
In order to determine whether the effects of the above six substances on reprogramming are cell growth dependent or independent, growth curves of the embryonic fibroblasts infected with reprogramming factor SKO and then cultured respectively in 9 culture states including iCD1, iCD1 without vitamin C, iCD1 without bFGF, iCD1 without CHIR99021, iCD1 without lithium chloride, iCD1 without vitamin B12, iCD1 without thiamine, iCD1 without all of the six ingredients, and mES were plotted. 2×10^4 initial Oct4-GFP MEFs were infected with SKO viruses, and then cultured respectively in the above 9 culture media. The cells were digested respectively at the day of infection and medium replacement (day D0) and days 3 and 6 after infection, and the cells per well were counted. The replications n in each group of test are 3, and the error bar represents standard deviation (SD).

Experiment [3] concerns Oct4-GFP MEFs. Put plainly: iPS efficiency test: MEFs infected with SKO viruses, reprogrammed clones counted / GFP cell ratio by FCM. The following applies: 1×10^4 MEFs, clones at day 10.

Take `NCCO` [ethanolamine]: in the experiment with Oct4-GFP MEFs [1], the recommended working concentration was 1 µg/mL.
Consider vitamin E, for which, in the experiment with Oct4-GFP MEFs [1] (anti-oxidants), the recommended working concentration turned out to be 1000 µg/mL.
Turning to `Cc1cccc(-c2nn(C(=S)Nc3ccccc3)cc2-c2ccnc3ccccc23)n1` [A83-01, reference compound], in the experiment with Oct4-GFP MEFs [1] (clones at day 10), the “effect on the iCD1 reprogramming efficiency” value is reported as “cannot further improve the iCD1 reprogramming efficiency”.
Take vitamin A: in the experiment with Oct4-GFP MEFs [1], the recommended working concentration is 0.1 µg/mL.
Consider vitamin B12, for which, in the experiment on Oct4-GFP MEFs [1], the recommended working concentration was determined as 1.4 µg/mL and the “effect on the reprogramming efficiency” value is given as “have effects on the reprogramming efficiency”.
As for `CCCC(CCC)C(=O)O` [valproic acid (VPA), valproic acid, reference compound], the “effect on the iCD1 reprogramming efficiency” value with Oct4-GFP MEFs [1] (clones at day 10) is reported as “cannot further improve the iCD1 reprogramming efficiency”.
As to `O=C1O[C@H]([C@@H](O)CO)C(O)=C1O` [vitamin C, ascorbic acid], in the experiment on Oct4-GFP MEFs [1], the recommended working concentration was 50 µg/mL and the “effect on the reprogramming efficiency” value is recorded as “especially remarkable”. For the same compound, the “concentration above which an increase has no obvious improvement effect on the reprogramming efficiency” value in the experiment on Oct4-GFP MEFs [1] (in iCD1, 0-100 μg/ml, 2×10^4 MEFs, clones at day 10) was “higher than 25 μg/ml”. Besides, in the experiment on Oct4-GFP MEFs [2], the “effect on cell growth” value is on record as “no obvious effect on cell growth”.
As to `N[C@@H](CCC(=O)N[C@@H](CS)C(=O)NCC(=O)O)C(=O)O` [reduced glutathione], the recommended working concentration in the experiment with Oct4-GFP MEFs [1] (anti-oxidants) is 1500 µg/mL.
For the compound `O=C(O)CCCC[C@@H]1CCSS1` (racemic) [lipoic acid], the recommended working concentration in the experiment with Oct4-GFP MEFs [1] turned out to be 0.2 µg/mL.
With `CCCCC/C=C\C/C=C\CCCCCCCC(=O)O` [linoleic acid], the recommended working concentration with Oct4-GFP MEFs [1] came to 1 µg/mL.
Turning to “insulin: recombinant human insulin (SIGMA Inc.) preferred”, the recommended working concentration in the experiment with Oct4-GFP MEFs [1] is 50 µg/mL.
Take `Cc1c[nH]c(-c2cnc(NCCNc3ccc(C#N)cn3)nc2-c2ccc(Cl)cc2Cl)n1` [CHIR99021, reference compound]: in the experiment with Oct4-GFP MEFs [1] (added to Basal3.0, clone number and cell ratio as indexes), the “effect on reprogramming efficiency of Basal3.0” value is given as “can significantly improve the reprogramming efficiency”. The “effect of high dose on the reprogramming efficiency” value in the experiment with Oct4-GFP MEFs [1] (in iCD1, 0-12 μmol/ml, clones at day 10) was “inhibition effect on the reprogramming efficiency”. In addition, the “effect on the reprogramming efficiency” value with Oct4-GFP MEFs [1] is recorded as “especially remarkable”. Moreover, in the experiment on Oct4-GFP MEFs [2], the “effect on cell growth” value was “different degrees of effects on cell growth”. Also, in the experiment with Oct4-GFP MEFs [3] (in iCD1, 0-12 μmol/ml), the optimum effect concentration entry is reported as “about 3 mM”.
EGF: epidermal growth factor: in the experiment on Oct4-GFP MEFs [1] (added to iCD1 without receptor tyrosine kinase, clones at day 10), the “effect on reprogramming (receptor tyrosine kinase family growth factor)” value is on record as “can also promote the reprogramming”.
`Cc1ncc(C[n+]2csc(CCO)c2C)c(N)n1` [thiamine]: in the experiment with Oct4-GFP MEFs [1] (anti-oxidants), the recommended working concentration stood at 9000 µg/mL. Also, the “effect on the reprogramming efficiency” value in the experiment with Oct4-GFP MEFs [1] was “have effects on the reprogramming efficiency”.
For the compound `[Cl-].[Li+]` [lithium chloride, Lithium chloride], in the experiment on Oct4-GFP MEFs [1], the recommended working concentration came to 5 mmol/mL and the “effect on the reprogramming efficiency” value is on record as “have effects on the reprogramming efficiency”.
As for bFGF: basic fibroblast growth factor, the “period of the reprogramming in which it mainly plays a role” value in the experiment on Oct4-GFP MEFs [1] (added to iCD1 at different times from days 0 to 10, clones at day 10, n=6) is 0 to 8 days. Further, in the experiment on Oct4-GFP MEFs [1], the recommended working concentration was found to be 0.005 µg/mL and the “effect on the reprogramming efficiency” value is “especially remarkable”. The “effect on cell growth” value in the experiment with Oct4-GFP MEFs [2] is listed as “different degrees of effects on cell growth”. Also, the “final concentration above which an increase has no obvious improvement effect on the reprogramming efficiency” value in the experiment on Oct4-GFP MEFs [3] (in iCD1, 0-10 ng/ml) is reported as “higher than 5 ng/ml”.

The record behind these values is patent publication US20130040390A1, “CULTURE MEDIUM SUPPLEMENT AND USE THEREOF” (GUANGZHOU INSTITUTES OF BIOMEDICINE AND HEALTH, CHINESE …, priority 2010, published 2013).
